Test results taken from patent US20070128217A1 (priority 2003, published 2007).

Tests used:
[1] = system: control sera (pooled serum of ten healthy LUMC hospital workers; commercial negative donor pooled serum from the Dutch bloodbank); assay type: binding, human; design: Binding of Control serum LUMC to linear peptides / Binding of Control serum Blood-bank to linear peptides / Binding of Control serum LUMC to looped peptides / Binding of Control Serum Blood-Bank to Looped peptides / Binding of Control serum LUMC to linear peptides of the protein M of SARS-CoV Urbani / Binding of Control serum Blood-bank to linear peptides of the protein M of SARS-CoV Urbani / Binding of Control serum LUMC to looped peptides of the protein M of SARS-CoV Urbani / Binding of Control Serum Blood-Bank to Looped peptides of the protein M of SARS-CoV Urbani: unit not given here
[2] = system: rabbit serum obtained by immunizing a rabbit with the SARS-CoV strain Frankfurt 1; assay type: binding; design: Binding of a rabbit serum to linear peptides / Binding of a rabbit serum to looped peptides / Rabbit serum linear peptides / Rabbit serum looped peptides / Binding of a rabbit serum to linear peptides of protein N of SARS-CoV Urbani (Rabbit serum linear peptides) / Binding of a rabbit serum to looped/cyclic peptides of protein N of SARS-CoV Urbani (Rabbit serum looped peptides): unit not given here
[3] = system: recombinant human anti-SARS-CoV antibody 03-018; assay type: binding; design: Binding of antibody 03-018 to linear peptides of the N protein of SARS-CoV Urbani / Binding of antibody 03-018 to looped/cyclic peptides of the N protein of SARS-CoV Urbani: unit not given here
[4] = system: antibodies in sera from SARS patients (sera 1a, 1b, 2, 6, 37, 62, London, SARS-yellow, SARS-green); assay type: binding, human; design: Binding of serum 6 to linear peptides of protein X1 of SARS-CoV Urbani / Binding of serum 37 to linear peptides of protein X1 of SARS-CoV Urbani / Binding of serum 6 to looped/cyclic peptide (PEPSCAN-ELISA) / Binding of serum 37 to looped/cyclic peptide (PEPSCAN-ELISA) / Binding of serum 37 to looped/cyclic peptides of protein X1 of SARS-CoV Urbani / Binding of serum 6 to linear peptides of protein X2 / Binding of serum 37 to linear peptides of protein X2 / Binding of serum 37 to looped/cyclic peptides of protein X2 of SARS-CoV Urbani / Binding of serum 6 to linear peptides of protein M of SARS-CoV Urbani / Binding of serum 37 to linear peptides of protein M of SARS-CoV Urbani / Binding of serum 6 to looped/cyclic peptides of protein M of SARS-CoV Urbani / Binding of serum 37 to looped/cyclic peptides of protein M of SARS-CoV Urbani / Binding of serum 6 to linear peptides of protein X3 of SARS-CoV Urbani / Binding of serum 37 to linear peptides of protein X3 of SARS-CoV Urbani / Binding of serum 37 to looped/cyclic peptides of protein X3 of SARS-CoV Urbani / Binding of serum 6 to linear peptides of protein X4 of SARS-CoV Urbani / Binding of serum 37 to linear peptides of protein X4 of SARS-CoV Urbani / Binding of serum 37 to looped/cyclic peptides of protein X4 of SARS-CoV Urbani / Binding of serum 6 to linear peptides of protein X5 of SARS-CoV Urbani / Binding of serum 37 to linear peptides of protein X5 of SARS-CoV Urbani / Binding of serum 37 to looped/cyclic peptides of protein X5 of SARS-CoV Urbani / Binding of serum 6 to linear peptides of protein N of SARS-CoV Urbani / Binding of serum 37 to linear peptides of protein N of SARS-CoV Urbani / Binding of serum 6 to linear peptide (PEPSCAN-ELISA) / Binding of serum 1a to looped/cyclic peptides of protein N of SARS-CoV Urbani / Binding of serum 1b to looped/cyclic peptides of protein N of SARS-CoV Urbani / Binding of serum 2 to looped/cyclic peptides of protein N of SARS-CoV Urbani / Binding of serum 6 to looped/cyclic peptides of protein N of SARS-CoV Urbani / Binding of serum 37 to looped/cyclic peptides of protein N of SARS-CoV Urbani / Binding of serum 62 to looped/cyclic peptides of protein N of SARS-CoV Urbani / Binding of serum London to looped/cyclic peptides of protein N of SARS-CoV Urbani / Binding of serum SARS-green to looped/cyclic peptides of protein N of SARS-CoV Urbani: unit not given here

QLESKVSGKGQQQQG
Binding of Control Serum Blood-Bank to Looped peptides [1]: 1.0
Binding of Control serum Blood-bank to linear peptides [1]: 0.8
Binding of Control serum LUMC to linear peptides [1]: 0.8
Binding of Control serum LUMC to looped peptides [1]: 0.9
Binding of a rabbit serum to linear peptides of protein N of SARS-CoV Urbani (Rabbit serum linear peptides) [2]: 0.1
Binding of a rabbit serum to looped/cyclic peptides of protein N of SARS-CoV Urbani (Rabbit serum looped peptides) [2]: 0.4
Binding of antibody 03-018 to linear peptides of the N protein of SARS-CoV Urbani [3]: 0.1
Binding of antibody 03-018 to looped/cyclic peptides of the N protein of SARS-CoV Urbani [3]: 0.3
Binding of serum 1a to linear peptide (PEPSCAN-ELISA) [4]: 0.3
Binding of serum 1a to looped/cyclic peptides of protein N of SARS-CoV Urbani [4]: 0.5
Binding of serum 1b to linear peptide (PEPSCAN-ELISA) [4]: 0.1
Binding of serum 1b to looped/cyclic peptides of protein N of SARS-CoV Urbani [4]: 0.4
Binding of serum 2 to linear peptide (PEPSCAN-ELISA) [4]: 0.3
Binding of serum 2 to looped/cyclic peptides of protein N of SARS-CoV Urbani [4]: 0.7
Binding of serum 6 to linear peptide (PEPSCAN-ELISA) [4]: 0.2
Binding of serum 6 to looped/cyclic peptides of protein N of SARS-CoV Urbani [4]: 0.5
Binding of serum 37 to linear peptide (PEPSCAN-ELISA) [4]: 0.7
Binding of serum 37 to looped/cyclic peptides of protein N of SARS-CoV Urbani [4]: 0.6
Binding of serum 62 to linear peptide (PEPSCAN-ELISA) [4]: 0.8
Binding of serum 62 to looped/cyclic peptides of protein N of SARS-CoV Urbani [4]: 0.7
Binding of serum London to linear peptide (PEPSCAN-ELISA) [4]: 0.6
Binding of serum London to looped/cyclic peptides of protein N of SARS-CoV Urbani [4]: 0.7
Binding of serum SARS-green to linear peptide (PEPSCAN-ELISA) [4]: 0.5
Binding of serum SARS-green to looped/cyclic peptides of protein N of SARS-CoV Urbani [4]: 0.7
Binding of serum SARS-yellow to linear peptide (PEPSCAN-ELISA) [4]: 0.8
Binding of serum SARS-yellow to looped/cyclic peptides of protein N of SARS-CoV Urbani [4]: 1.1

QPLPQRQKKQPTVTL
Control Serum Blood-Bank Looped peptides [1]: 1.0
Control serum Blood-bank linear peptides [1]: 0.6
Control serum LUMC linear peptides [1]: 0.5
Control serum LUMC looped peptides [1]: 0.9
Binding of a rabbit serum to linear peptides of protein N of SARS-CoV Urbani (Rabbit serum linear peptides) [2]: 0.1
Binding of a rabbit serum to looped/cyclic peptides of protein N of SARS-CoV Urbani (Rabbit serum looped peptides) [2]: 0.7
Binding of antibody 03-018 to linear peptides of the N protein of SARS-CoV Urbani [3]: 0.1
Binding of antibody 03-018 to looped/cyclic peptides of the N protein of SARS-CoV Urbani [3]: 0.3
Binding of serum 1a to linear peptides of protein N of SARS-CoV Urbani [4]: 0.2
Binding of serum 1b to linear peptides of protein N of SARS-CoV Urbani [4]: 0.2
Binding of serum 2 to linear peptides of protein N of SARS-CoV Urbani [4]: 0.3
Binding of serum 6 to linear peptides of protein N of SARS-CoV Urbani [4]: 0.4
Binding of serum 37 to linear peptides of protein N of SARS-CoV Urbani [4]: 0.6
Binding of serum 62 to linear peptides of protein N of SARS-CoV Urbani [4]: 0.6
Binding of serum London to linear peptides of protein N of SARS-CoV Urbani [4]: 1.3
Binding of serum SARS-green to linear peptides of protein N of SARS-CoV Urbani [4]: 0.2
Binding of serum SARS-yellow to linear peptides of protein N of SARS-CoV Urbani [4]: 1.3
Recognition of the peptide by sera of SARS-CoV infected individuals, and form (linear, looped/cyclic) in which it is recognized [4]: recognized in looped/cyclic form
